Tests used:
platelets [1] = assay: Integrin αIIbβ3 activation (fibrinogen binding); type: cell-based, human; details: in response to U46619; RA pre-treatment 1 hour
Protocol: To validate the predictive power of the developed framework, direct experimental evidence of the predicted mechanistic role of Rosmarinic acid (RA) in VD was sought. […] Therefore, whether RA influenced platelet activation in vitro was evaluated. As platelets can be stimulated through different activation pathways, RA effects can, in principle, occur in any of them. To test these different possibilities, platelets were pretreated with RA and then activated with: 1) glycoprotein VI by collagen or collagen-related peptide (Collagen/CRPXL); 2) protease-activated receptors-1,4 by thrombin receptor activator peptide-6 (TRAP-6); 3) prostanoid thromboxane receptor by the thromboxane A2 analogue (U46619); and 4) P2Y1/12 receptor stimulation by adenosine diphosphate (ADP). When the network distance between each stimulant receptor and the RA-VD-platelet module (FIG. 11A) was compared, it was observed that the receptors for Collagen/CRPXL, TRAP-6, and U46619 are closer than the random expectation, while the receptor for ADP is more distant (FIG. 11B). It is expected that platelets would be most affected by RA when treated with stimulants whose receptors are most proximal to the RA-VD-platelet module, i.e. Collagen/CRPXL, TRAP-6, and U46619. […] Percent-positive cells were determined by gating on fluorescence intensity compared to unstimulated samples.

platelets [2] = assay: Platelet functions after ADP stimulation (control, distant receptor); type: cell-based, human; details: stimulant whose receptor is distant from the RA-VD-module (ADP)
Protocol: To validate the predictive power of the developed framework, direct experimental evidence of the predicted mechanistic role of Rosmarinic acid (RA) in VD was sought. […] Therefore, whether RA influenced platelet activation in vitro was evaluated. As platelets can be stimulated through different activation pathways, RA effects can, in principle, occur in any of them. To test these different possibilities, platelets were pretreated with RA and then activated with: 1) glycoprotein VI by collagen or collagen-related peptide (Collagen/CRPXL); 2) protease-activated receptors-1,4 by thrombin receptor activator peptide-6 (TRAP-6); 3) prostanoid thromboxane receptor by the thromboxane A2 analogue (U46619); and 4) P2Y1/12 receptor stimulation by adenosine diphosphate (ADP). […] Platelet aggregation was measured by turbidimetric aggregometry. […] Platelet aggregation was monitored for 6 minutes at 37° C. with a stir speed of 1000 rpm and the maximum extend of aggregation recorded using AGGRO/LINK®8 software. In some cases, dense granule release was simultaneously recorded by supplementing samples with Chrono-Lume® (Chrono-Log®, 395) according to the manufacturer's instructions. […] Percent-positive cells were determined by gating on fluorescence intensity compared to unstimulated samples.

`O=C(/C=C/c1ccc(O)c(O)c1)O[C@H](Cc1ccc(O)c(O)c1)C(=O)O` [rosmarinic acid] was tested, and the “integrin αIIbβ3 activation” value (platelets [1]) was “dampened” and the platelet functions (platelets [2]) was “did not affect”.

Source: patent publication US20220184020A1, “Polyphenols as Modulators of Platelet Function” (Northeastern University, priority 2019, published 2022)
